Measured values reported in paper PMC3634028, “Novel α-MSH Peptide Analogues with Broad Spectrum Antimicrobial Activity” (PLoS ONE, 2013).
Values after ≈ are worked out from the molar mass of the structure shown. Where a SMILES comes first, the peptide text is derived from it.

What was measured:
[1] = system: HaCaT keratinocyte cell line; assay: Cytotoxic activity, MTT colorimetric method; format: cell-based, human; settings: 24 h; for cell death / killing of human keratinocytes: highest peptide concentration used (100 µM)
Procedure: Effects on viability was tested in the immortalised keratinocyte cell line HaCaT using the [3(4,5-dimethylthiazol-2yl)2,5-diphenyltetrazolium bromide] (MTT) colorimetric method in which the intensity of the dye is proportional to the number of viable cells. MTT is a tetrazolium salt which is reduced to a colored formazan product by mitochondrial reductases present only in metabolically active cells. Cells were cultured in Dulbecco's modified Eagle's medium (DMEM; Sigma) supplemented with 10% heat inactivated fetal bovine serum, glutamine (4 mM) and gentamicin. Afterwards, cells were plated in triplicate wells of a microtiter plate, at 4×10^4 cells/well in DMEM supplemented with 2% serum without antibiotic. After overnight incubation at 37°C in a 5% CO2 atmosphere, the medium was replaced with […] fresh DMEM supplemented with the peptides at different concentrations. The plate was incubated for 24 h at 37°C in a 5% CO2 atmosphere. Then, DMEM was removed and replaced with Hank's medium (136 mM NaCl; 4.2 mM Na2HPO4; 4.4 mM KH2PO4; 5.4 mM KCl; 4.1 mM NaHCO3, pH 7.2, supplemented with 20 mM D-glucose) containing 0.5 mg/ml MTT. After 4 h incubation, the formazan crystals were dissolved by adding 100 µl of acidified isopropanol and absorption of each well was measured using a microplate reader (Infinite M200; Tecan, Salzburg, Austria) at 570 nm. Cell viability was e expressed as percentage of viability in control cells (cells not treated with peptide).
Figure 1 Effects of the synthetic melanocortins on viability of HaCat cells. Cells were plated in wells of a microtiter plate, at 4×10^4 cells/well in DMEM supplemented with 2% serum without antibiotic. After overnight incubation at 37°C in a 5% CO2 atmosphere, the medium was replaced with 100 µl fresh DMEM supplemented with the peptides at different concentrations. […] Cell viability is expressed as percentage of viability in control cells (cells not treated with the peptide).

[2] = system: Pseudomonas syringae pv tabaci 1918NCPPB; format: cell-based; settings: 18 h
Procedure: (§1) The strains used for the antimicrobial assays were the Gram-negative bacteria Acinetobacter baumani ATCC 19606, Escherichia coli D21, Pseudomonas aeruginosa ATCC 27853, and Pseudomonas syringae pv tabaci 1918NCPPB and the Gram-positive bacteria Bacillus megaterium Bm11, Staphylococcus aureus ATCC 25923, and Staphylococcus epidermidis ATCC 12228. Susceptibility testing was performed by adapting the microbroth dilution method outlined by the Clinical and Laboratory Standards Institute, using sterile 96-well plates (Falcon NJ, USA). The bacterial growth was aseptically measured by absorbance at 590 nm with a spectrophotometer (UV-1700 Pharma Spec Shimadzu, Tokyo, Japan). Afterwards, aliquots (50 µl) of bacteria in mid-log phase at a concentration of 2×10^6 colony-forming units (CFU)/mL in culture medium (Mueller-Hinton, MH) were added to 50 µl of MH broth containing the peptide in serial 2-fold dilutions ranging from 1.56 to 100 µM. Inhibition of microbial growth was determined by measuring the absorbance at 590 nm, after an incubation of 18 h at 37°C with a microplate reader (Infinite M200; Tecan, Salzburg, Austria).

[3] = system: Staphylococcus aureus ATCC 25923; format: cell-based; settings: ATCC 25923, 18 h
Procedure: as §1

[4] = system: Acinetobacter baumani ATCC 19606; format: cell-based; settings: ATCC 19606, 18 h
Procedure: as §1

Bacillus megaterium Bm11 = format: cell-based; settings: Bacillus Bm11, 18 h
Procedure: as §1

[5] = system: Staphylococcus epidermidis ATCC 12228; format: cell-based; settings: ATCC 12228, 18 h
Procedure: as §1

[6] = system: Pseudomonas aeruginosa ATCC 27853; format: cell-based; settings: ATCC 27853, 18 h
Procedure: as §1

Escherichia coli D21 = format: cell-based; settings: D21, 18 h
Procedure: as §1

Candida = system: Candida; parameters: method as in PMID 15743181; settings: cited from earlier work
[7] = system: Candida strains (C. albicans, C. glabrata, C. krusei); assay: Anti-Candida assay, overall result in words; format: cell-based, Candida spp; settings: standard culture conditions, broth culture medium
Procedure: (§2) Two Candida albicans isolates were purchased from the ATCC (No. 24433 and 76615). The other yeast isolates were obtained from the collection of Fondazione Ca' Granda- Ospedale Maggiore Policlinico, Milano. The collection included C. albicans (7 isolates), C. glabrata (3 isolates), and C. krusei (3 isolates). Antifungal susceptibility testing was performed using the broth microdilution method according to the NCCLS M27-A guidelines (National Committee for Clinical Laboratory Standards. 1997, Reference method for broth dilution antifungal susceptibility testing of yeasts and approved standard NCCLS document M27-A. National Committee for Clinical Laboratory Standards, Wayne, Pa.). […] After 48 h of incubation, the plates were inspected for purity. A colony was taken from the agar plate and transferred into 5 mL Sabouraud-dextrose broth and incubated for 48 h at 35°C. Cells were centrifuged at 1,000× g for 10 min and the pellet was washed twice with distilled water. Cells were counted and suspended in RPMI 1640 medium buffered to pH 7.0 with 0.165 mol l^−1 morpholinepropanesulphonic acid (MOPS) buffer (Sigma) to obtain the two times test inoculum (1×10^3 to 5×10^3 CFU/mL). […] The MIC90, i.e. the minimum inhibitory concentrations endpoint were determined as 90% reduction in turbidity measured using a spectrophotometer (Titertek multiscan at 690 nm wave length).

C. krusei = format: cell-based, Candida krusei; settings: 48 h
Procedure: as §2

C. glabrata = format: cell-based, Candida glabrata; settings: 48 h
Procedure: as §2

C. albicans = format: cell-based, Candida albicans; settings: 48 h
Procedure: as §2

Row | Compound | cell death / killing of human keratinocytes [1] | MIC 100 [2] [µM] | MIC 100 [3] [µM] | MIC 100 [4] [µM] | MIC 100 (Bacillus megaterium Bm11) [µM] | MIC 100 [5] [µM] | MIC 100 [6] [µM] | MIC 100 (Escherichia coli D21) [µM] | killing of Candida (in words) (Candida; in growth medium ref 7) | Candida organisms killed (Candida; organisms incubated in distilled water ref 7) [%] | antimicrobial / anti-Candida activity (in words) [7] | MIC 90 (C. krusei) [µM] | MIC 90 (C. glabrata) [µM] | MIC 90 (C. albicans) [µM] | toxic effects on human keratinocytes (in words) ([1]; at 50–100 µM concentrations) | toxic activity on human keratinocytes (in words) ([1]; up to a concentration of 12.5 µM)
1 | CC(C)[C@H](NC(=O)[C@H](Cc1ccccc1)NC(=O)[C@H](CCCCN)NC(=O)CNC(=O)[C@H](Cc1c[nH]c2ccccc12)NC(=O)[C@H](CCCNC(=N)N)NC(=O)[C@@H](Cc1ccc2ccccc2c1)NC(=O)[C@@H](N)Cc1c[nH]cn1)C(N)=O [DNal, H-His-D(2′)Nal-Arg-Trp-Gly-Lys-Phe-Val-NH2, reference compound] (HELM PEPTIDE1{H.[O=C([C@@H](Cc1ccc2ccccc2c1)N[*:1])[*:2]].R.W.G.K.F.V.[am]}$$$$V2.0) | 50–100% | >100 | >100 | >100 | 6 (≈ 6.75 µg/mL) | 50 (≈ 56.3 µg/mL) | 100 (≈ 113 µg/mL) | >100 | did not kill | 100 | did not have substantial antimicrobial activity | >100 | >100 | >100 |  | 
2 | CC(C)[C@H](NC(=O)[C@H](Cc1ccccc1)NC(=O)[C@H](CCCCN)NC(=O)[C@@H](NC(=O)[C@H](Cc1c[nH]c2ccccc12)NC(=O)[C@H](CCCNC(=N)N)NC(=O)[C@@H](Cc1ccc2ccccc2c1)NC(=O)[C@@H](N)Cc1c[nH]cn1)C(C)(C)C)C(N)=O [Peptide 3, H-His-D(2′)Nal-Arg-Trp-tBuGly-Lys-Phe-Val-NH2] (HELM PEPTIDE1{H.[O=C([C@@H](Cc1ccc2ccccc2c1)N[*:1])[*:2]].R.W.[CC(C)(C)[C@H](N[*:1])C(=O)[*:2]].K.F.V.[am]}$$$$V2.0) | less than 30% | >100 | >100 | 100 (≈ 118 µg/mL) | 6.25 (≈ 7.38 µg/mL) | 50 (≈ 59.1 µg/mL) | 50 (≈ 59.1 µg/mL) | 50 (≈ 59.1 µg/mL) |  |  | inactive | >100 | >100 | >100 |  | 
3 | CC(C)[C@H](NC(=O)[C@H](Cc1ccccc1)NC(=O)[C@H](CCCCN)NC(=O)C1(NC(=O)[C@H](Cc2c[nH]c3ccccc23)NC(=O)[C@H](CCCNC(=N)N)NC(=O)[C@@H](Cc2ccc3ccccc3c2)NC(=O)[C@@H](N)Cc2c[nH]cn2)CC1)C(N)=O [Peptide 4, H-His-D(2′)Nal-Arg-Trp-Ac3c-Lys-Phe-Val-NH2] (HELM PEPTIDE1{H.[O=C([C@@H](Cc1ccc2ccccc2c1)N[*:1])[*:2]].R.W.[O=C(C1(N[*:1])CC1)[*:2]].K.F.V.[am]}$$$$V2.0) | less than 30% | >100 | 100 (≈ 115 µg/mL) | 50 (≈ 57.6 µg/mL) | 6.25 (≈ 7.2 µg/mL) | 25 (≈ 28.8 µg/mL) | 50 (≈ 57.6 µg/mL) | 100 (≈ 115 µg/mL) |  |  | inactive | >100 | >100 | >100 |  | 
4 | CC(C)[C@H](NC(=O)[C@H](Cc1ccccc1)NC(=O)[C@H](CCCCN)NC(=O)[C@H](Cc1ccccc1)NC(=O)[C@H](Cc1c[nH]c2ccccc12)NC(=O)[C@H](CCCNC(=N)N)NC(=O)[C@@H](Cc1ccc2ccccc2c1)NC(=O)[C@@H](N)Cc1c[nH]cn1)C(N)=O [Peptide 9, H-His-D(2′)Nal-Arg-Trp-Phe-Lys-Phe-Val-NH2] (HELM PEPTIDE1{H.[O=C([C@@H](Cc1ccc2ccccc2c1)N[*:1])[*:2]].R.W.F.K.F.V.[am]}$$$$V2.0) | less than 30% | 100 (≈ 122 µg/mL) | 50 (≈ 60.8 µg/mL) | 25 (≈ 30.4 µg/mL) | 3.125 (≈ 3.8 µg/mL) | 12.5 (≈ 15.2 µg/mL) | 25 (≈ 30.4 µg/mL) | 50 (≈ 60.8 µg/mL) |  |  | decreased activity | >100 | >100 |  |  | 
5 | CC(C)[C@H](NC(=O)[C@H](Cc1ccccc1)NC(=O)[C@H](CCCCN)NC(=O)[C@H](CC1CCCCC1)NC(=O)[C@H](Cc1c[nH]c2ccccc12)NC(=O)[C@H](CCCNC(=N)N)NC(=O)[C@@H](Cc1ccc2ccccc2c1)NC(=O)[C@@H](N)Cc1c[nH]cn1)C(N)=O [Peptide 10, H-His-D(2′)Nal-Arg-Trp-Cha-Lys-Phe-Val-NH2] (HELM PEPTIDE1{H.[O=C([C@@H](Cc1ccc2ccccc2c1)N[*:1])[*:2]].R.W.[Cha].K.F.V.[am]}$$$$V2.0) |  | 25 (≈ 30.5 µg/mL) | 12.5 (≈ 15.3 µg/mL) | 12.5 (≈ 15.3 µg/mL) | 3.125 (≈ 3.82 µg/mL) | 6.25 (≈ 7.63 µg/mL) | 25 (≈ 30.5 µg/mL) | 6.25 (≈ 7.63 µg/mL) |  |  | potency similar to that of peptide 8 |  | >100 |  | exerted toxic effects | completely devoid of toxic activity
